According to PMC3257379 (Amino Acids, 2011):
Positions of bridges follow the written chain, without caps; N, C: chain ends. No end group written: not given here.

How the values were obtained:
[1] = system: tumor-draining brachial LNs of 4T1 tumor-bearing BALB/C mice; assay: Ex vivo optical; format: in vivo, mouse; settings: day 21 after tumor inoculation; 0.8 nmol, 24 h post injection; no blocking; n = 3/group
MDA-MB-435 xenografts = settings: systemic LyP-1 peptide treatment of xenografted tumor mice; ref Laakkonen et al. 2004; cited from earlier work

Substance | Average signal of tumor-draining LNs [1] | Effect on tumor growth (MDA-MB-435 xenografts)
Cy5.5 | 25.6 ± 0.25 ×10^3 photon/cm^2/s | –
CGNKRTRGC (disulfide 1-9 (inferred)) [LyP-1] | – | inhibited tumor growth
